Reference: patent US7087375B1, “Method for determining the mechanism of HIV RT inhibitors” (priority 2000, dated 2006)
Values joined by “and” are separate entries in the source; they are usually repeats but may differ in a detail not shown here. Equal entries are not always repeated. Where two headings read alike, the source gives them in different places.

Columns and labels:
Assay type in all cases: biochemical
[1] = target: T1, HIV-1 RT wild type (HXB2) (Human immunodeficiency virus type 1 group M subtype B, UniProt P04585)
T1 construct: The final RT products, in a heterodimeric form (p66/p51); made in house; host or cells: E. coli XL1-Blue (vector pKK233-2)

HIV-1 RT mutant 41/215 = HIV-1 RT mutant 41/215 (Human immunodeficiency virus type 1 group M subtype B, UniProt P04585, M628L/T802Y); experiment: RT inhibition assay (Lenti RT, polyrA/oligo(dT), BrdUTP); settings: 41/215 RT, AZT-TP assay
[2] = target: T2, HIV-1 RT mutant 41/184/215 (Human immunodeficiency virus type 1 group M subtype B, UniProt P04585, M628L/M771V/T802Y); settings: 41/184/215 RT, AZT-TP assay, read-out: Km (BrdUTP)
T2 construct: The final RT products, in a heterodimeric form (p66/p51); made in house; host or cells: E. coli XL1-Blue (vector pKK233-2)

[3] = target: T3, HIV-1 RT mutant 41/67/70/215 (Human immunodeficiency virus type 1 group M subtype B, UniProt P04585, D654N/K657R/M628L/T802Y); settings: 41/67/70/215 RT
T3 construct: The final RT products, in a heterodimeric form (p66/p51); made in house; host or cells: E. coli XL1-Blue (vector pKK233-2)

[4] = target: T4, HIV-1 RT mutant 41/67/70/184/215 (Human immunodeficiency virus type 1 group M subtype B, UniProt P04585, D654N/K657R/M628L/M771V/T802Y); settings: 41/67/70/184/215 RT
T4 construct: The final RT products, in a heterodimeric form (p66/p51); made in house; host or cells: E. coli XL1-Blue (vector pKK233-2)

[5] = target: T5, HIV-1 RT mutant 41/67/70/184/210/211/214/215 (Human immunodeficiency virus type 1 group M subtype B, UniProt P04585, D654N/K657R/L797W/L801F/M628L/M771V/R798K/T802Y); settings: 41/67/70/184/210/211/214/215 RT
T5 construct: The final RT products, in a heterodimeric form (p66/p51); made in house; host or cells: E. coli XL1-Blue (vector pKK233-2)

HIV-1 RT mutant 69S-SS = target: T6, HIV-1 RT mutant 69S-SS (Human immunodeficiency virus type 1 group M subtype B, UniProt P04585, INS655SS/T656S); settings: 69S-SS RT, AZT-TP assay, read-out: Km (BrdUTP)
T6 construct: The final RT products, in a heterodimeric form (p66/p51); made in house; host or cells: E. coli XL1-Blue (vector pKK233-2)

[6] = target: T7, HIV-1 RT mutant 41/69S-SS/215 (Human immunodeficiency virus type 1 group M subtype B, UniProt P04585, INS655SS/M628L/T656S/T802Y); settings: 41/69S-SS/215 RT, AZT-TP assay, read-out: Km (BrdUTP)
T7 construct: The final RT products, in a heterodimeric form (p66/p51); made in house; host or cells: E. coli XL1-Blue (vector pKK233-2)

HIV-1 RT mutant 69S-SG = target: T8, HIV-1 RT mutant 69S-SG (Human immunodeficiency virus type 1 group M subtype B, UniProt P04585, INS655SS/T656G/T656S); settings: 69S-SG RT
T8 construct: The final RT products, in a heterodimeric form (p66/p51); made in house; host or cells: E. coli XL1-Blue (vector pKK233-2)

HIV-1 RT mutant 69S-AG = target: T9, HIV-1 RT mutant 69S-AG (Human immunodeficiency virus type 1 group M subtype B, UniProt P04585, INS655SA/T656G/T656S); settings: 69S-AG RT
T9 construct: The final RT products, in a heterodimeric form (p66/p51); made in house; host or cells: E. coli XL1-Blue (vector pKK233-2)

HIV-1 RT mutant V75T = target: T10, HIV-1 RT mutant V75T (Human immunodeficiency virus type 1 group M subtype B, UniProt P04585, V662T); settings: d4T-TP assay
T10 construct: The final RT products, in a heterodimeric form (p66/p51); made in house

HIV-1 RT mutant Q151M = target: T11, HIV-1 RT mutant Q151M (Human immunodeficiency virus type 1 group M subtype B, UniProt P04585, Q738M); settings: d4T-TP assay
T11 construct: The final RT products, in a heterodimeric form (p66/p51); made in house

[7] = AZT-TP assay, ATP 3.2 mM, read-out: Km (BrdUTP)
[8] = d4T-TP assay, ATP 3.2 mM, read-out: Km
[9] = d4T-TP assay, without ATP, read-out: Km
[10] = AZT-TP assay, without ATP, read-out: Km (BrdUTP)

Substance: bromo-deoxyuridine-triphosphate [BrdUTP]
- Km ([1]; read-out: Km (BrdUTP)): 0.31 µM and 0.17 µM
- Km ([1]; wild type HXB2 RT, AZT-TP assay, ATP 3.2 mM + PPi 150 μM, read-out: Km (BrdUTP)): 0.517 µM
- Km ([1]; wild type HXB2 RT, AZT-TP assay, ATP 6.0 mM, read-out: Km (BrdUTP)): 0.81 µM
- Km ([1]; wild type HXB2 RT, AZT-TP assay, ATP […], read-out: Km (BrdUTP)): 0.24 µM
- Km ([1]; wild type HXB2 RT, AZT-TP assay, GTP 0.5 mM, read-out: Km (BrdUTP)): 0.324 µM
- Km ([1]; wild type HXB2 RT, AZT-TP assay, PPi 150 μM, read-out: Km (BrdUTP)): 0.3 µM
- Km ([1]; wild type HXB2 RT, d4T-TP assay, ATP 3.2 mM, read-out: Km): 0.162 µM
- Km ([1]; wild type HXB2 RT, d4T-TP assay, without ATP, read-out: Km): 0.136 µM
- Km (HIV-1 RT mutant 41/215; ATP 3.2 mM): 0.36 µM
- Km (HIV-1 RT mutant 41/215; without ATP): 0.11 µM
- Km ([2]; ATP 3.2 mM): 0.14 µM
- Km ([2]; without ATP): 0.049 µM
- Km ([3]; AZT-TP assay, ATP 3.2 mM + PPi 150 μM, read-out: Km (BrdUTP)): 0.202 µM
- Km [3, 7]: 0.074 µM
- Km ([3]; AZT-TP assay, ATP 6.0 mM, read-out: Km (BrdUTP)): 0.225 µM
- Km ([3]; AZT-TP assay, ATP […], read-out: Km (BrdUTP)): 0.064 µM
- Km ([3]; AZT-TP assay, GTP 0.5 mM, read-out: Km (BrdUTP)): 0.117 µM
- Km ([3]; AZT-TP assay, PPi 150 μM, read-out: Km (BrdUTP)): 0.09 µM
- Km ([3]; AZT-TP assay, no extra additions (without ATP), read-out: Km (BrdUTP)): 0.01 µM
- Km ([3]; AZT-TP assay, nontreated pyrophosphatase ATP 3.2 mM (control), single experiment, read-out: Km (BrdUTP)): 0.044 µM
- Km ([3]; AZT-TP assay, pyrophosphatase treated ATP 3.2 mM, single experiment, read-out: Km (BrdUTP)): 0.037 µM
- Km [3, 8]: 0.126 µM
- Km [3, 9]: 0.08 µM
- Km [4, 7]: 0.38 µM
- Km [4, 10]: 0.06 µM
- Km [4, 8]: 0.152 µM
- Km [4, 9]: 0.075 µM
- Km [5, 7]: 0.58 µM
- Km [5, 10]: 0.12 µM
- Km [5, 8]: 0.249 µM
- Km [5, 9]: 0.216 µM
- Km (HIV-1 RT mutant 69S-SS; ATP 3.2 mM): 0.22 µM
- Km (HIV-1 RT mutant 69S-SS; without ATP): 0.066 µM
- Km ([6]; ATP 3.2 mM): 0.21 µM
- Km ([6]; without ATP): 0.045 µM
- Km (HIV-1 RT mutant 69S-SG; [7]): 0.36 µM
- Km (HIV-1 RT mutant 69S-SG; [10]): 0.1 µM
- Km (HIV-1 RT mutant 69S-SG; [8]): 0.228 µM
- Km (HIV-1 RT mutant 69S-SG; [9]): 0.239 µM
- Km (HIV-1 RT mutant 69S-AG; [7]): 0.28 µM
- Km (HIV-1 RT mutant 69S-AG; [10]): 0.1 µM
- Km (HIV-1 RT mutant 69S-AG; [8]): 0.126 µM
- Km (HIV-1 RT mutant 69S-AG; [9]): 0.117 µM
- Km (HIV-1 RT mutant V75T; ATP 3.2 mM): 0.165 µM
- Km (HIV-1 RT mutant V75T; without ATP): 0.079 µM
- Km (HIV-1 RT mutant Q151M; ATP 3.2 mM): 0.174 µM
- Km (HIV-1 RT mutant Q151M; without ATP): 0.117 µM
